Consider one compound from patent US9486466B2, “Veliparib in combination with carboplatin for the treatment of triple negative breast cancer” (AbbVie Inc., priority 2013, dated 2016).

The test system of the test is early-stage triple negative breast cancer. Description: Phase 2 randomized open label study of veliparib and carboplatin with standard neoadjuvant chemotherapy; pathologic complete response. Format: in vivo, human. The text has this: Pathological Complete Response (pCR) is the absence of any residual invasive cancer on hematoxylin and eosin evaluation of the resected breast specimen and any resected lymph node tissue following completion of neoadjuvant systemic therapy.
This example is a Phase 2, interventional, randomized, open label study evaluating the safety and efficacy of veliparib and carboplatin administered concurrently with standard chemotherapy in subjects with early-stage triple negative breast cancer.
Patients received 50 mg po bid during the 12 weekly treatment cycles post-randomization and carboplatin: AUC 6 IV every three weeks for […] during the 12 weekly treatment cycles post-randomization with standard chemotherapy or alternatively standard chemotherapy alone. Standard chemotherapy was paclitaxel: 80 mg/m^2 IV during the 12 weekly treatment cycles post randomization; doxorubicin: 60 mg/m^2 IV after completion of the 12 weekly treatment cycles and prior to surgery for weeks 13-16; cyclophosphamide: 600 mg/m^2 IV after completion of the 12 weekly treatment cycles and prior to surgery for weeks 13-16.
Determine whether adding veliparib and carboplatin to standard neoadjuvant medications increases the probability of pathologic complete response (pCR) over standard neoadjuvant chemotherapy for triple negative breast cancer. […]

Molecules are shown by their SMILES.

Turning to `C[C@]1(c2nc3c(C(N)=O)cccc3[nH]2)CCCN1` [Veliparib arm, 2-[(2R)-2-methylpyrrolidin-2-yl]-1H-benzimidazole-4-carboxamide], the pCR % (patients with triple negative breast cancer, neoadjuvant therapy followed by surgery, veliparib arm: veliparib 50 mg po bid + carboplatin AUC 6 IV during the 12 weekly cycles, added to standard chemotherapy (paclitaxel, then doxorubicin/cyclophosphamide), control arm: standard chemotherapy alone) was 56% (n = 39). Moreover, the “effect on number of women achieving pCR status” value (veliparib and carboplatin added to standard of care, neoadjuvant setting, early triple negative breast cancer) is recorded as “increases the number of women that achieve pCR status”.
